Results as given in US20100317850A1 (priority 2008, published 2010).

Tested on: Aβ42 production
Test: Quantification of Aβ peptide in culture of neurons from rat fetus brain (Aβ ELISA)
Assay type: cell-based
Conditions: Neuron, 72 h; rat primary neuronal culture (cerebral cortex, embryonic day 18 Wistar rats); medium collected three days after addition of the compound; Aβx-42 ELISA; read-out: Aβ42 production reducing effect IC50
How it was run: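 Primary cortical neurons from embryonic day 18 Wistar rats were cultured 4 days, then exposed to compound in Neurobasal/B27 without 2-ME, final DMSO ≤1%. After three days, medium was collected and Aβx-42 measured undiluted by sandwich ELISA.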

Compound	IC50 [nM]
NC1=N[C@@]2(c3cc(NC(=O)c4cnc(C(F)F)cn4)ccc3F)C[C@H](CF)OC[C@H]2CS1 [Example 43, N-[3-((4aS,7R,8aS)-2-amino-7-fluoromethyl-4a,5,7,8-tetrahydro-4H-6-oxa-3-thia-1-azanaphthalen-8a-yl)-4-fluorophenyl]-5-difluoromethylpyrazine-2-carboxamide]	19
NC1=N[C@@]2(c3cccc(-c4cccnc4F)c3)CN(C(=O)CC3CC3)C[C@H]2CS1 [Example 48]	575
COC[C@H]1OC[C@]2(c3cc(NC(=O)c4ccc(C#N)cn4)ccc3F)N=C(N)SC[C@H]12 [Example 66, N-[3-((4aS,5S,7aS)-2-amino-5-methoxymethyl-4a, 5-dihydro-4H-furo[3,4-d][1,3]thiazin-7a-yl)-4-fluorophenyl]-5-cyanopyridine-2-carboxamide]	1.3
COC[C@H]1OC[C@]2(c3cc(NC(=O)c4cnc(OC(F)F)cn4)ccc3F)N=C(N)SC[C@H]12 [Example 67, N-[3-((4aS,5S,7aS)-2-amino-5-methoxymethyl-4a,5-dihydro-4H-furo[3,4-d][1,3]thiazin-7a-yl)-4-fluorophenyl]-5-difluoromethoxy-pyrazine-2-carboxamide]	1.4
COC[C@H]1OC[C@]2(c3cc(NC(=O)c4cnc(C(F)F)cn4)ccc3F)N=C(N)SC[C@H]12 [Example 68, N-[3-((4aS,5S,7aS)-2-amino-5-methoxymethyl-4a,5-dihydro-4H-furo[3,4-d][1,3]thiazin-7a-yl)-4-fluorophenyl]-5-difluoromethylpyrazine-2-carboxamide]	6
COC[C@H]1OC[C@]2(c3cc(NC(=O)c4cnc(OCF)cn4)ccc3F)N=C(N)SC[C@H]12 [Example 69, N-[3-((4aS,5S,7aS)-2-amino-5-methoxymethyl-4a,5-dihydro-4H-furo[3,4-d][1,3]thiazin-7a-yl)-4-fluorophenyl]-5-fluoromethoxypyrazine-2-carboxamide]	2
NC1=N[C@@]2(c3cc(NC(=O)c4ccc(C(F)(F)F)cn4)ccc3F)CO[C@H](CF)[C@H]2CS1 [Example 70, N-[3-((4aS,5S,7aS)-2-amino-5-fluoromethyl-4a,5-dihydro-4H-furo[3,4-d][1,3]thiazin-7a-yl)-4-fluorophenyl]-5-trifluoromethylpyridine-2-carboxamide]	2
NC1=N[C@@]2(c3cc(NC(=O)c4ccc(Cl)cn4)ccc3F)CO[C@H](CF)[C@H]2CS1 [Example 71, N-[3-((4aS,5S,7aS)-2-amino-5-fluoromethyl-4a,5-dihydro-4H-furo[3,4-d][1,3]thiazin-7a-yl)-4-fluorophenyl]-5-chloropyridine-2-carboxamide]	1
NC1=N[C@@]2(c3cc(NC(=O)c4ccc(OC(F)F)cn4)ccc3F)CO[C@H](CF)[C@H]2CS1 [Example 72, N-[3-((4aS,5,7aS)-2-amino-5-fluoromethyl-4a,5-dihydro-4H-furo[3,4-d][1,3]thiazin-7a-yl)-4-fluorophenyl]-5-difluoromethoxypyridine-2-carboxamide]	2
NC1=N[C@@]2(c3cc(NC(=O)c4cnc(C(F)F)cn4)ccc3F)CO[C@H](CF)[C@H]2CS1 [Example 73, N-[3-((4aS,5S,7aS)-2-amino-5-fluoromethyl-4a,5-dihydro-4H-furo[3,4-d][1,3]thiazin-7a-yl)-4-fluorophenyl]-5-difluoromethylpyrazine-2-carboxamide]	7
NC1=N[C@@]2(c3cc(NC(=O)c4cnc(OCF)cn4)ccc3F)CO[C@H](CF)[C@H]2CS1 [Example 75, N-[3-((4aS,5,7aS)-2-amino-5-fluoromethyl-4a,5-dihydro-4H-furo[3,4-d][1,3]thiazin-7a-yl)-4-fluorophenyl]-5-fluoromethoxypyrazine-2-carboxamide]	3
NC1=N[C@@]2(c3cccc(-c4cccnc4F)c3)CN(C(=O)c3ccccc3)C[C@H]2CS1 [Example 82]	425
NC1=N[C@@]2(c3cccc(-c4cccnc4F)c3)CN(C(=O)C3CC3)C[C@H]2CS1 [Example 84]	893
NC1=N[C@@]2(c3cccc(-c4cccnc4F)c3)CN(c3cnccn3)C[C@H]2CS1 [Example 87]	62
NC1=N[C@@]2(c3cccc(-c4cccnc4F)c3)CN(c3cccc(F)n3)C[C@H]2CS1 [Example 88]	75
Cc1cnc(C(=O)Nc2ccc(F)c([C@]34CCCC[C@H]3CSC(N)=N4)c2)cn1 [Example 117]	158
NC1=N[C@@]2(c3cc(NC(=O)c4ncc(Br)cn4)ccc3F)CCCC[C@H]2CS1 [Example 120]	38
NC1=N[C@@]2(c3cc(NC(=O)c4ncccn4)ccc3F)CCCC[C@H]2CS1 [Example 121]	263
NC1=N[C@@]2(c3cc(NC(=O)c4ccc(Br)o4)ccc3F)CCCC[C@H]2CS1 [Example 122]	123
N#Cc1cnc(C(=O)Nc2ccc(F)c([C@]34CCC[C@H]3CSC(N)=N4)c2)nc1 [Example 126]	70
CNC(=O)c1ccc(C(=O)Nc2ccc(F)c([C@]34CCC[C@H]3CSC(N)=N4)c2)nc1 [Example 127]	214
CCOC(=O)c1cnc(C(=O)Nc2ccc(F)c([C@]34CCC[C@H]3CSC(N)=N4)c2)nc1 [Example 128]	231
NC(=O)c1ccc(C(=O)Nc2ccc(F)c([C@]34CCC[C@H]3CSC(N)=N4)c2)nc1 [Example 129]	65
NC1=N[C@@]2(c3cc(NC(=O)c4ccc(C5CC5)cn4)ccc3F)CCC[C@H]2CS1 [Example 134]	86
NC1=N[C@@]2(c3cc(NC(=O)c4ccc5cnccc5n4)ccc3F)CCC[C@H]2CS1 [Example 138]	63
NC1=N[C@@]2(c3cc(NC(=O)c4ccc5ccccc5n4)ccc3F)CCC[C@H]2CS1 [Example 139]	169
NC1=N[C@@]2(c3cc(NC(=O)c4cnc5ccccc5n4)ccc3F)CCC[C@H]2CS1 [Example 140]	67

Compound	IC50 [nM]
C[C@H]1OC[C@H]2CSC(N)=N[C@]21c1cc(NC(=O)c2ccc(C#N)cn2)ccc1F [Example 151]	167
N#Cc1ccc(C(=O)Nc2ccc(F)c([C@]34CO[C@H](CF)[C@H]3CSC(N)=N4)c2)nc1 [Example 164, N-[3-((4aS,5S,7aS)-2-amino-5-fluoromethyl-4a,5-dihydro-4H-furo[3,4-d][1,3]thiazin-7a-yl)-4-fluorophenyl]-5-cyanopyridine-2-carboxamide]	1
Cc1cnc(C(=O)Nc2ccc(F)c([C@]34CCC[C@H]3CSC(N)=N4)c2)cn1 [Example 195]	68
NC1=N[C@@]2(c3cc(NC(=O)c4ccc(OCc5ccccc5)cn4)ccc3F)CCC[C@H]2CS1 [Example 196]	977
Cc1cc(Cl)ccc1C(=O)Nc1ccc(F)c([C@]23CCC[C@H]2CSC(N)=N3)c1 [Example 197]	220
NC1=N[C@@]2(c3cc(NC(=O)c4ncccn4)ccc3F)CCC[C@H]2CS1 [Example 198]	129
NC1=N[C@@]2(c3cc(NC(=O)c4ncc(Br)cn4)ccc3F)CCOC[C@H]2CS1 [Example 199]	12
NC1=N[C@@]2(c3cc(NC(=O)c4ncc(F)cc4F)ccc3F)CCOC[C@H]2CS1 [Example 200]	44
CO[C@H]1CC[C@]2(c3cc(NC(=O)c4cnc(C(F)F)cn4)ccc3F)N=C(N)SC[C@@H]2C1 [Example 205]	25
NC1=N[C@@]2(c3cc(NC(=O)c4nc5ccccc5s4)ccc3F)CCCC[C@H]2CS1 [Example 223]	316
NC1=N[C@@]2(c3cc(NC(=O)c4cnccn4)ccc3F)CCCC[C@H]2CS1 [Example 224]	271
Cc1ccc(C(=O)Nc2ccc(F)c([C@]34CCCC[C@H]3CSC(N)=N4)c2)nc1 [Example 225]	198
NC1=N[C@@]2(c3cccc(-c4cncnc4)c3)CN(c3cnccn3)C[C@H]2CS1 [Example 230]	202
NC1=N[C@@]2(c3cc(NC(=O)c4ccncn4)ccc3F)CCC[C@H]2CS1 [Example 233]	86
Cc1cccnc1C(=O)Nc1ccc(F)c([C@]23CCC[C@H]2CSC(N)=N3)c1 [Example 236]	59
CC(=O)c1ccc(C(=O)Nc2ccc(F)c([C@]34CCC[C@H]3CSC(N)=N4)c2)nc1 [Example 237]	80
COc1cccnc1C(=O)Nc1ccc(F)c([C@]23CCC[C@H]2CSC(N)=N3)c1 [Example 238]	350
Cn1cc(-c2ccc(C(=O)Nc3ccc(F)c([C@]45CCC[C@H]4CSC(N)=N5)c3)nc2)cn1 [Example 239]	238
NC1=N[C@@]2(c3cc(NC(=O)c4ncccc4F)ccc3F)CCCCC[C@H]2CS1 [Example 251]	120
NC1=N[C@@]2(c3cc(NC(=O)c4ncccc4C(F)(F)F)ccc3F)CCCCC[C@H]2CS1 [Example 252]	187
NC1=N[C@@]2(c3cc(NC(=O)c4ncccc4Br)ccc3F)CCCCC[C@H]2CS1 [Example 253]	171
NC1=N[C@@]2(c3cc(NC(=O)c4ccc(Br)cn4)ccc3F)CCCC[C@H]2CS1 [Example 254]	43
NC1=N[C@@]2(c3cc(NC(=O)c4ccccn4)ccc3F)CCCC[C@H]2CS1 [Example 255]	158
NC1=N[C@@]2(c3cc(NC(=O)c4ncccc4Cl)ccc3F)CCCC[C@H]2CS1 [Example 258]	376
NC1=N[C@@]2(c3cc(NC(=O)c4ncccc4F)ccc3F)CCCC[C@H]2CS1 [Example 259]	372
NC1=N[C@@]2(c3cc(NC(=O)c4ncccc4Br)ccc3F)CCCC[C@H]2CS1 [Example 260]	170
NC1=N[C@@]2(c3cc(NC(=O)c4ncccc4C(F)(F)F)ccc3F)CCCC[C@H]2CS1 [Example 261]	277
